Assay results from PMC7855594 (Cell chemical biology, 2020).
pIC50: −log10 of the molar value. Each block holds one compound with its values, some of them ahead of it.

Experiments:
USP7 [1] = biological target: T1, USP7 (Homo sapiens, UniProt Q93009); format: biochemical
USP7 [2] = biological target: T1, USP7; format: biochemical; remark: listed apart in the source
USP7 [3] = biological target: T1, USP7; assay: purified enzyme biochemical assay; conditions: cited from earlier work

T1 sequence (Q93009 whole entry): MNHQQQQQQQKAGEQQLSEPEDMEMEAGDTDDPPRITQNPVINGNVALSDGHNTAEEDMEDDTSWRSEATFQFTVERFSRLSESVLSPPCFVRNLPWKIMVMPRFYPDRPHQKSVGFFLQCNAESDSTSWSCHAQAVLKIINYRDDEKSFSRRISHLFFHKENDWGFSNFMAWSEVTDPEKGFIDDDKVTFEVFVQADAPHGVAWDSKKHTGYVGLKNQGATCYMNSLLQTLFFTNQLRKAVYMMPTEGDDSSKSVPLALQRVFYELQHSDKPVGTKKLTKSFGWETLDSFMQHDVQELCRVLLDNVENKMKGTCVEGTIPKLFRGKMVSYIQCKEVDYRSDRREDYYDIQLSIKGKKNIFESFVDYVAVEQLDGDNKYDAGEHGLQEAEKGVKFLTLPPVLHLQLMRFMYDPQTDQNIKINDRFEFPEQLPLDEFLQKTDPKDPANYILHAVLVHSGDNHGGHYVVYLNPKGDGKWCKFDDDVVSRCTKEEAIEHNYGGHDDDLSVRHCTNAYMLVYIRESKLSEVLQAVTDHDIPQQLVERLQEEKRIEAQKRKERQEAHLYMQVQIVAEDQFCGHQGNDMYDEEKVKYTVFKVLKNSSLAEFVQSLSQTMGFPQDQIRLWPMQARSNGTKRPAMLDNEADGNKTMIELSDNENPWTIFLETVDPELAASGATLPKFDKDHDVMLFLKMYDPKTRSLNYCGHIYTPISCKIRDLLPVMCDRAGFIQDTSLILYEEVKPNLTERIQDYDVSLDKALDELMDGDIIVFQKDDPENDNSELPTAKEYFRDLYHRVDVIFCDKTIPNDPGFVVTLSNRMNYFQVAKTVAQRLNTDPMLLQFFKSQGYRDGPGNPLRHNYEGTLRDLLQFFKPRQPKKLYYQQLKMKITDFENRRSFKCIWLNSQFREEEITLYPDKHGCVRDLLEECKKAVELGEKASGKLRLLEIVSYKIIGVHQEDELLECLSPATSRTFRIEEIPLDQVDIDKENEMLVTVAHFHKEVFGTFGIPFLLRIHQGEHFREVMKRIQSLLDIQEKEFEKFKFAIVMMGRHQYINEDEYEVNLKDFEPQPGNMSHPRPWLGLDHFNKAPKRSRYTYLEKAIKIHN

% inhibition at 10 μM (USP7 [1]): 100
Structure (SMILES): C[C@H](CC(=O)N1CCC(O)(Cn2cnc3cc(NC(=O)CCN4CCN(C)CC4)ccc3c2=O)CC1)c1ccccc1 [XL188]

% inhibition at 1 μM (USP7 [2]): 100
Structure (SMILES): CN1CCN(CCC(=O)Nc2ccc3c(=O)n(CC4(O)CCN(C(=O)[C@@H](CCCNC(=O)c5ccc6c(Cl)c7c(nc6c5)CCCC7)Cc5ccccc5)CC4)cnc3c2)CC1 [XL177A]

Structure (SMILES): C[C@@H](CC(=O)N1CCC(O)(Cn2cnc3cc(NC(=O)CCN4CCN(C)CC4)ccc3c2=O)CC1)c1ccccc1 [XL203C]
pIC50 (USP7 [3]): 5.15
